From patent EP4806892A1, “CEREBLON E3 UBIQUITIN LIGASE INHIBITOR” (GAN & LEE PHARMACEUTICALS CO., LTD., priority 2023, dated 2025)

Tests used:
Assay type in all cases: cell-based
MCF-7 cells = experiment: MCF-7 cell proliferation inhibition (CCK-8); conditions: Homo sapiens, MCF7, 144 h, 6 days
Procedure: The complete culture medium required for breast cancer MCF-7 cells (source ATCC) is DMEM (gibco, Product number: 11995-065) basal medium containing 10% fetal bovine serum. MCF-7 cells were seeded in 96-well plates at a density of 800 cells/well, and different concentrations of PROTAC compounds 1-55 provided in the embodiments of the present invention and the positive control sample ARV-471 (source: Inokai) were prepared to treat cells. The cells were incubated at 37 °C and 5% CO2 in a cell culture incubator for 6 days. Cell viability was detected using a CCK-8 kit (Beyotime, Product number: C0040) according to the manufacturer's instructions. The IC50 value of each PROTAC compound for 6 days was calculated using GraphPad Prism software based on the inhibition rate. Table 7: IC50 value for the inhibition of MCF-7 cell proliferation by PROTAC compounds of the present disclosure and positive control sample

ERα [1] = target: T1, ERα (Homo sapiens, UniProt P03372); experiment: ERα degradation in T-47D cells (immunoblot); parameters: host or cells: T-47D; conditions: 10 nM, 4 hours
T1 sequence (P03372 1-595): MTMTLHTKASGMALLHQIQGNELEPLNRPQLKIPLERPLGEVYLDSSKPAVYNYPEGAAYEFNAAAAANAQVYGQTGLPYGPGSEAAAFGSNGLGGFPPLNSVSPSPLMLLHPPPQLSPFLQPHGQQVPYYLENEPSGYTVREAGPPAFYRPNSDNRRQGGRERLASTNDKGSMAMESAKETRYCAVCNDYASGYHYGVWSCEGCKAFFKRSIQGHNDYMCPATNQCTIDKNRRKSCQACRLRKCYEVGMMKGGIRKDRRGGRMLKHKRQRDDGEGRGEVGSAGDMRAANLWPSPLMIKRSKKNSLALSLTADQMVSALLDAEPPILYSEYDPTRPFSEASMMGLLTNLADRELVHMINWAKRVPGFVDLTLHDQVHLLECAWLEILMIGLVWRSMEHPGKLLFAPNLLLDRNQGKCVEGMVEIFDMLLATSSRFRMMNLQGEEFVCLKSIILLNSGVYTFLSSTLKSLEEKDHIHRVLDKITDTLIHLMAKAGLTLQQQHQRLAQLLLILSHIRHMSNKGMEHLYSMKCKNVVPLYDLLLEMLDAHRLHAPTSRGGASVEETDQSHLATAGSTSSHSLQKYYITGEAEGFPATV
Procedure: T-47D (ATCC) cells were cultured in PRMI-1640 medium (30-2001, ATCC) containing 10% FBS (10099141C, Gibco) at 37°C and 5% CO2 until they entered the logarithmic growth phase. T-47D cells were seeded onto 6-well plates at a density of 3×10^5 cells per well, and incubated at 37°C with 5% CO2 for 24 hours. After cell attachment, 1 µL of compound in dimethyl sulfoxide solution (final concentration 0.15-1000 nM) was added and the cells were incubated for another 4 hours at 37°C, 5% CO2. After 4 hours, the culture medium was discarded, and each well was washed once with 1 mL of pre-chilled 1× DPBS. The cells were then lysed with 50 µL of RIPA lysis buffer (P0013B, Beyotime) and 1× protease inhibitor cocktail (P1005, Beyotime). After incubation on ice for 20 minutes, the cells were centrifuged at 14,000 g at 4°C for 30 minutes. The supernatant was carefully collected and analyzed for ERα protein levels by immunoblotting.

T-47D cells = experiment: T-47D cell proliferation inhibition (CCK-8); conditions: Homo sapiens, T47D, 144 h, 6 days
Procedure: The complete culture medium required for breast ductal carcinoma T-47D cells is 1640 (ATCC, Product number: A10491-01) basal medium containing 10% fetal bovine serum. T-47D cells were seeded in 96-well plates at a density of 3,000/well, and different concentrations of PROTAC compounds 1-55 provided in the embodiments of the present invention and the positive control sample ARV-471 (source: Inokai) were prepared to treat the cells and incubated at 37°C, 5% CO2 in a cell culture incubator for 6 days. According to the manufacturer's instructions, the CCK-8 kit (Beyotime, Product number: C0040) was used to detect cell viability. The IC50 of each compound for 6 days was calculated using GraphPadPrism software based on the inhibition rate. Table 6: IC50 value for the inhibition of T-47D cell proliferation by PROTAC compounds and positive control sample

ERα [2] = target: T1, ERα; experiment: ERα degradation in MCF-7 cells (Western blot); conditions: 10 nM, 4 hours
Procedure: MCF-7 (ATCC) cells were cultured in DMEM medium (11995-065, Gibco) containing 10% FBS (10099141C, Gibco) at 37°C and 5% CO2 until they entered the logarithmic growth phase. MCF-7 cells were seeded at a density of 3×10^5 cells/well in a 6-well plate and incubated at 37°C, 5% CO2 for 24 hours. After cell attachment, 1 µL of compound in dimethyl sulfoxide solution (final concentration 0.15-1000 nM) was added and the cells were incubated for another 4 hours at 37°C, 5% CO2. After 4 hours, the culture medium was discarded, and each well was washed once with 1 mL of pre-chilled 1× DPBS. […] The supernatant was carefully collected and analyzed for ERα protein levels by immunoblotting.
Western blotting: The total protein concentration in the collected cell lysate supernatant was determined using the BCA protein concentration assay kit (enhanced) (P0009, Beyotime). Based on the total protein concentration determined by BCA, the protein concentration was adjusted to 1 µg/µL using RIPA lysis buffer and 5× SDS-PAGE protein loading buffer (MB01015, GenScript). […] Protein maps were analyzed for grayscale values using Image Studio Lite software. The grayscale correction value for each sample was calculated using the formula: grayscale correction value = grayscale value of the target protein / grayscale value of the corresponding internal reference. […]

Row | IC50 (T-47D cells) [nM] | degradation rate of ERα in MCF-7 cells (ERα [2]) | SMILES | IC50 (MCF-7 cells) [nM] | degradation rate of ERα in T-47D cells (ERα [1])
1 | – | – | O=C1CCN(c2ccc3c(c2)CC2(CCN(C[C@H]4CC[C@@H](OC5CCN(c6ccc([C@@H]7c8ccc(O)cc8CC[C@@H]7c7ccccc7)cc6)CC5)CC4)CC2)O3)C(=O)N1 [ER-P-1, 1-(1'-(((1S,4S)-4-((1-(4-((1R,2S)-6-hydroxy-2-phenyl-1,2,3,4-tetrahydro-naphthalen-1-yl)phenyl)piperidin-4-yl)oxy)cyclohexyl)methyl)-3H-spiro [benzofuran-2,4'-piperidine]-5-yl)dihydropyrimidine-2,4(1H,3H)-dione] | 845 | greater than or equal to 30%
2 | 21.7 | greater than or equal to 30% | O=C1CCN(c2ccc3c(c2)OCC[C@H]2CN(C[C@H]4CC[C@@H](OC5CCN(c6ccc([C@@H]7c8ccc(O)cc8CC[C@@H]7c7ccccc7)cc6)CC5)CC4)CCN32)C(=O)N1 [ER-P-2, 1-((S)-3-(((1S,4R)-4-((1-(4-((1R,2S)-6-hydroxy-2-phenyl-1,2,3,4-tetrahydronaphthalen-1-yl)phenyl)piperidin-4-yl)oxy)cyclohexyl)methyl)-2,3,4,4a,5,6-hexahydro-1H-benzo[b]pyrazino[1,2-d][1,4]oxazepin-9-yl)dihydropyrimidine-2,4(1H,3H)-dione] | – | –
